# Assay results: ChEMBL document CHEMBL1129846, “Synthesis and antiproliferative activity of 2-O-allyl-1--D-arabinofuranosyl-uracil, -cytosine and -adenine” (Bioorg Med Chem Lett, 1997)
# Assays:
# Format in all cases: functional, cell-based
# [1] = Compound was evaluated for its antiproliferative activity on human T-lymphocyte CEM cells; conditions: CCRF-CEM
# [2] = Compound was evaluated for its antiproliferative activity on human T-lymphocyte Molt4/C8 cells; conditions: MOLT-4
# L1210 = test: Tested for its antiproliferative activity on murine leukemia L1210 cells; conditions: Mus musculus
SMILES,IC50 (L1210),IC50 [1],IC50 [2]
C=CCO[C@H]1[C@H](O)[C@@H](CO)O[C@H]1n1cnc2c(N)ncnc21,250 µM,72 µM,88 µM
C=CCO[C@H]1[C@H](O)[C@@H](CO)O[C@H]1n1ccc(=O)[nH]c1=O,> 500 µM,> 500 µM,> 500 µM
O=c1ccn([C@@H]2O[C@H](CO)[C@@H](O)[C@H]2O)c(=O)[nH]1 [URIDINE],> 200 µM,> 200 µM,> 200 µM

# The next compounds have a lower IC50 (L1210) than those just listed; values first:
IC50 (L1210),SMILES,IC50 [1],IC50 [2]
127 µM,C=CCO[C@H]1[C@H](O)[C@@H](CO)O[C@H]1n1ccc(N)nc1=O,127 µM,588 µM
0.031 µM,Nc1ccn([C@@H]2O[C@H](CO)[C@@H](O)[C@@H]2O)c(=O)n1 [CYTARABINE],0.0037 µM,0.03 µM
14.2 µM,Nc1ncnc2c1ncn2[C@@H]1O[C@H](CO)[C@@H](O)[C@@H]1O [VIDARABINE],24.8 µM,11.9 µM
